Assay results reported in US9359322B2, “C-linked glucuronide of N-(4-hydroxybenzyl) retinone, analogs thereof, and methods of using the same to inhibit neoplastic cell growth” (Wisconsin Alumni Research Foundation, priority 2005, dated 2016).

Biological target: T1, RARβ (Homo sapiens, UniProt P10826)
T1 sequence (P10826 1-455): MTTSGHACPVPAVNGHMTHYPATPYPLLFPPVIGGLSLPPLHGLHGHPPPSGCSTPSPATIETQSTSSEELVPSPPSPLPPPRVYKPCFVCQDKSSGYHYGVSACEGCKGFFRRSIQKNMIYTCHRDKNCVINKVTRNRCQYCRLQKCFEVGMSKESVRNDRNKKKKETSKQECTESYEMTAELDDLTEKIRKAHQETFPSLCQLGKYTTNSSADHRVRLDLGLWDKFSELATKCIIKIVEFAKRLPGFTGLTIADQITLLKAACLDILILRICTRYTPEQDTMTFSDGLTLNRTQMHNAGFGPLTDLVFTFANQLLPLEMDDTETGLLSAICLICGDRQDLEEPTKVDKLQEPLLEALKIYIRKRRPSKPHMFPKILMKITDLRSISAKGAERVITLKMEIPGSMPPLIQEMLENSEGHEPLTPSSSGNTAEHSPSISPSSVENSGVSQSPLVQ
Assay: Nuclear retinoid receptor binding assay, competition with [3H]all-trans RA
Conditions: competition for [3H]atRA; present work
Method: Nuclear Retinoid Receptor Binding Assay. Competition of 3 and 7 and 4-HBRCGlucose with [^3H]-all-trans-RA (4.2-4.6 nM) for binding to RARβ and RARγ and with [^3H]-9-cis RA (1.9 nM) for binding to RXRγ was determined using an in vitro ligand binding assay.^41, 42 [^3H]-all-trans-RA (40.5 Ci/mmole) or [^3H]-9-cis-RA (69.4 Ci/mmole) was added to receptor-containing extracts in the absence and presence of increasing concentrations of competing ligands at 4° C. for 3 hr. A hydroxylapatite (HAP) assay was used to separate ligand bound to receptor from that free in solution, and the radioactivity associated with the HAP pellet was measured by scintillation counting.

Compound: CC1=C(/C=C/C(C)=C/C=C/C(C)=C/C(=O)Cc2ccc(CC3OC(C(=O)O)C(O)C(O)C3O)cc2)C(C)(C)CCC1 [4-HBRCG (7), 2,6-Anhydro-7-deoxy-7-[4-(retinoylmethyl)-phenyl]-L-glycero-L-gulo-heptinoic acid]
- Times less potent than atRA in binding to RARβ: 300 times
